Data on 16 compounds can be found in patent US5489591A, “S-triazine derivative and remedy for estrogen-dependent disease containing said derivative as effective component” (Zenyaku Kogyo Kabushiki Kaisha, priority 1992, dated 1996).

The target in experiment [1] is T1, cholesterol side-chain cleaving enzyme (Sus scrofa, UniProt P10612).
T1 construct: porcine adrenal mitochondria; from tissue; host or cells: porcine adrenal mitochondria
T1 sequence (P10612 40-520): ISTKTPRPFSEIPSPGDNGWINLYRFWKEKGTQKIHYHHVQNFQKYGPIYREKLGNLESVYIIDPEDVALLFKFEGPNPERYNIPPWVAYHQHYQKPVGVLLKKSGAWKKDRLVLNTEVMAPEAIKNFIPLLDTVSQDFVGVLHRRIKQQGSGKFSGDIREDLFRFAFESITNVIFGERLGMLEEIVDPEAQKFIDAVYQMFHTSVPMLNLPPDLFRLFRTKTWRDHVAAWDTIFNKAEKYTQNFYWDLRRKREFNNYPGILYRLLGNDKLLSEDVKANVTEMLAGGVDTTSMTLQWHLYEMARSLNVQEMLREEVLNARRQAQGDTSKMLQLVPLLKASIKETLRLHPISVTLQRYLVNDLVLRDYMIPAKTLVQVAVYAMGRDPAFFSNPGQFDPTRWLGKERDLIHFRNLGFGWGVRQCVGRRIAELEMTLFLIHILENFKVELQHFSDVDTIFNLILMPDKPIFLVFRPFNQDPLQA
Briefly: Inhibitory activity against cholesterol side-chain cleaving enzyme (Pharmacological Test 2, porcine adrenal mitochondria). In kind it is biochemical. To be noted: substrate 5-cholesten-3β-ol 5.0×10^-6 M, read-out: SCC-IC50. As for the experimental part: Inhibitory activity against cholesterol side-chain cleaving enzyme was determined according to the method of M. Shikita and P. F. Hall [Proc. Nat. […] Briefly, the each compound to be tested was added to a reaction vial containing porcine adrenal mitochondria, [4-^14 C]5-cholesten-3β-ol (250 Bq/5 nmol) and NADPH. […] These were separated by extracting the reaction mixture with methylene-dichloride followed by purifying with thin-layer chromatography. Substrate (5-cholesten-3β-ol) and reaction product (3β-hydroxypregn-5-en-20-one) were respectively measured by a liquid scintillation counter. The measured quantity of 3β-hydroxypregn-5-en-20-one was used to determine cholesterol side-chain cleaving activity which was compared with the activity when incubated without inhibitor to calculate inhibition ratio (%).

The next experiment addresses T2, Aromatase (Homo sapiens, UniProt P11511).
T2 construct: human placenta microsome; from tissue; host or cells: human placenta microsomes
T2 sequence (P11511 1-503): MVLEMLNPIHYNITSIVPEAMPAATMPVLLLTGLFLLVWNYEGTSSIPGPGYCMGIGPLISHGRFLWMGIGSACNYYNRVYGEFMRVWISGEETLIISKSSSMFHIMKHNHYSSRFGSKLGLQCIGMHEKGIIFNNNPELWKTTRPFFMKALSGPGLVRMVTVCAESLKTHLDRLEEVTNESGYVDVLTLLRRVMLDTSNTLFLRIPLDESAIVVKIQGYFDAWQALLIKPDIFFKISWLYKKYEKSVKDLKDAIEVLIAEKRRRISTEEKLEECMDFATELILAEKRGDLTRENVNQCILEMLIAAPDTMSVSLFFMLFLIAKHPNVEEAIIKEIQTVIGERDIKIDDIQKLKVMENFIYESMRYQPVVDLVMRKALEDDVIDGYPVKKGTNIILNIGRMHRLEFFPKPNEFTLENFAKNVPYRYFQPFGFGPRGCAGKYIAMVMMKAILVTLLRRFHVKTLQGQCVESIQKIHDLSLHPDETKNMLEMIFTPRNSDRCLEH
Briefly: Aromatase inhibitory activity (Pharmacological Test 1, human placenta microsome). In kind it is biochemical. As to conditions: substrate 4-androsten-3,17-dione 1.0×10^-6 M, read-out: AI-IC50. The protocol: Aromatase inhibitory activity was determined according to the method of E. A. Thompson and P. K. Siiteri [J. Biol. Chem., 249, 5364-5372 (1974)]. The each compound to be tested was added to a reaction vial containing human placenta microsome, [1β,2 β-^3 H]4-androsten-3,17-dione (3.3 kBq/500 pmol) and NADPH. […] The obtained [^3 H]H2 O was measured by a liquid scintillation counter. The measured quantity of [3H]H20 was used to determine aromatase activity, and was compared with the activity when incubated without inhibitor to calculate inhibition ratio (%).

For `CCC1(c2ccc(N)cc2)CCC(=O)NC1=O` (stereo not drawn) [AG, aminoglutethimide, reference compound], the IC50 in experiment [1] worked out at 66000 nM.

As for `CN(C)c1nc(N2CCOCC2)nc(-n2ccnc2)n1` [Compound 1, 2-(1-Imidazolyl)-4-dimethylamino-6-morpholino-1,3,5-triazine], the IC50 is greater than 100000 nM in experiment [1] and 10 nM on Aromatase.

Regarding `CN(C)c1nc(N2CCCC2)nc(-n2ccnc2)n1` [Compound 2, 2-(1-Imidazolyl)-4-dimethylamino-6-(1-pyrrolidinyl)-1,3,5-triazine], the IC50 was greater than 100000 nM in experiment [1] and 1300 nM at Aromatase.

As to `CN(C)c1nc(N2CCCCC2)nc(-n2ccnc2)n1` [Compound 3, 2-(1-Imidazolyl)-4-dimethylamino-6-piperidino-1,3,5-triazine], the IC50 is greater than 100000 nM in experiment [1] and 770 nM on Aromatase.

For `Cc1ncn(-c2nc(N(C)C)nc(-n3ccnc3)n2)c1C` [Compound 5, 2-(1-Imidazolyl)-4-dimethylamino-6-(4,5-dimethyl-1-imidazolyl)-1,3,5-triazine], the IC50 in experiment [1] is greater than 100000 nM; at Aromatase, 200 nM.

In the case of `CC(C)c1nccn1-c1nc(N(C)C)nc(-n2ccnc2)n1` [Compound 6, 2-(1-Imidazolyl)-4-(2-isopropyl-1-imidazolyl)-6-dimethylamino-1,3,5-triazine], the IC50 in experiment [1] was greater than 100000 nM; on Aromatase it was 4300 nM.

As for `c1ccc(N2CCN(c3nc(N4CCOCC4)nc(-n4ccnc4)n3)CC2)nc1` [Compound 8, 2-(1-Imidazolyl)-4-morpholino-6-[4-(2-pyridyl)-1-piperazinyl]-1,3,5-triazine], the concentration for half-maximal inhibition (IC50) is 54000 nM in experiment [1] and 11 nM on Aromatase.

For `c1ccc(CN2CCN(c3nc(N4CCOCC4)nc(-n4ccnc4)n3)CC2)cc1` [Compound 9, 2-(4-Benzyl-1-piperazinyl)-4-(1-imidazolyl)-6-morpholino-1,3,5-triazine], the concentration for half-maximal inhibition (IC50) amounted to 15000 nM in experiment [1] and 17 nM at Aromatase.

For `CC1CN(c2nc(N3CCOCC3)nc(-n3ccnc3)n2)CC(C)O1` (stereo not drawn) [Compound 10, 2-(1-Imidazolyl)-4-(2,6-dimethylmorpholino)-6-morpholino-1,3,5-triazine], the IC50 in experiment [1] was greater than 100000 nM; at Aromatase, 31 nM.

Take `CC1CC(C)CN(c2nc(N3CCOCC3)nc(-n3ccnc3)n2)C1` (stereo not drawn) [Compound 11, 2-(1-Imidazolyl)-4-(3,5-dimethylpiperidino)-6-morpholino-1,3,5-triazine]: the IC50 in experiment [1] worked out at 19000 nM; on Aromatase, 11 nM.

In the case of `c1cn(-c2nc(N3CCOCC3)nc(N3CCC4(CC3)OCCO4)n2)cn1` [Compound 12, 2-(4,4-Ethylenedioxypiperidino)-4-(1-imidazolyl)-6-morpholino-1,3,5-triazine], the IC50 in experiment [1] is greater than 100000 nM; at Aromatase, 24 nM.

`CN(c1ccccc1)c1nc(N2CCOCC2)nc(-n2ccnc2)n1` [Compound 14, 2-(1-Imidazolyl)-4-(N-methyl-N-phenylamino)-6-morpholino-1,3,5-triazine]: the IC50 in experiment [1] turned out to be 31000 nM; at Aromatase it was 6.7 nM.

As for `c1cn(-c2nc(N3CCCC3)nc(N3CCCC3)n2)cn1` [Compound 17, 2-(1-Imidazolyl)-4,6-bis(1-pyrrolidinyl)-1,3,5-triazine], the IC50 is greater than 100000 nM in experiment [1] and 310 nM at Aromatase.

On to `c1cn(-c2nc(N3CCCCC3)nc(N3CCCCC3)n2)cn1` [Compound 18, 2-(1-Imidazolyl)-4,6-dipiperidino-1,3,5-triazine], for which the IC50 is greater than 100000 nM in experiment [1] and 310 nM at Aromatase.

Take `c1cn(-c2nc(N3CCSCC3)nc(N3CCSCC3)n2)cn1` [Compound 21, 2-(1-Imidazolyl)-4,6-bis(thiomorpholino)-1,3,5-triazine]: the results for the IC50 (in experiment [1]; at Aromatase) were 100000 nM and 5.1 nM, respectively.

Turning to `CN(C)c1nc(N(C)C)nc(N(C)C)n1` [HMM, hexamethylmelamine, reference compound], the IC50 in experiment [1] was greater than 100000 nM.
